Experiments:
in vivo [1] = conditions: rat, brain and blood, iv
in vivo [2] = conditions: rat, whole blood
in vivo [3] = conditions: rat
in vivo [4] = conditions: rat, po
in vivo [5] = conditions: rat; remark: listed apart in the source

Row | Structure (SMILES) | Kp at 1 h (in vivo [1]) | clearance (in vivo [2]) | Vd (in vivo [3]) | bioavailability (in vivo [4]) | half-life (in vivo [5])
1 | Cc1ccc2c(-c3nnc(SCCCN4CCc5ccc6nc(C(C)(F)F)oc6c5CC4)n3C)cccc2n1 | 4 | 43 mL/min/kg | 3.31 L/kg | 8% | 
2 | Cc1ncoc1-c1nnc(SCCCN2CCc3ccc4oc(C(F)(F)F)nc4c3CC2)n1C | 0.8 | 35 mL/min/kg | 1.6 L/kg | 63% | 0.6 h
3 | Cc1ccc2c(-c3nnc(SCCCN4CCc5ccc6oc(C)nc6c5CC4)n3C)cccc2n1 | 2.5 | 48 mL/min/kg |  | 15% | 1.7 h
4 | CCc1nc2c3c(ccc2o1)CCN(CCCSc1nnc(-c2ocnc2C)n1C)CC3 | 0.1 | 5 mL/min/kg | 0.61 L/kg | 73% | 1.9 h
5 | Cc1ncoc1-c1nnc(SCCCN2CCc3ccc4oc(C(C)(F)F)nc4c3CC2)n1C | 0.2 | 9 mL/min/kg | 0.8 L/kg | 54% | 1.2 h
